According to patent US9499493B2, “2,4-pyrimidinediamine compounds and their uses” (Rigel Pharmaceuticals, Inc., priority 2002, dated 2016):

Tests used:
[1] = system: bone marrow derived mast cells (BMMC); experiment: BMMC high cell density IgE activation: IL-6; assay type: cell-based, mouse; conditions: anti-IgE, second part of TABLE 1
Protocol: (§1) Inhibition of degranulation was measured at both low and high cell density by quantifying the release of the granule specific factors tryptase, histamine and hexosaminidase. Inhibition of release and/or synthesis of lipid mediators was assessed by measuring the release of leukotriene LTC4 and inhibition of release and/or synthesis of cytokines was monitored by quantifying TNF-α, IL-6 and IL-13. Tryptase and hexosaminidase were quantified using fluorogenic substrates as described in their respective examples. […] The protocols of the various assays are provided below.
(§2) After sensitizing, cells are counted, pelleted (1000 rpm, 5-10 minutes), and resuspended at 1-3×10^6 cells/ml in MT buffer. Add 100 ul of cell suspension to each well and 100 ul of compound dilutions. The final vehicle concentration is 0.5% DMSO. Incubate at 37° C. (5% CO2) for 1 hour. After 1 hour of compound treatment, stimulate cells with 6× stimulus (60 ng/ml DNP-BSA). Mix wells with the cells and allow plates to incubate at 37° C. (5% CO2) for one hour. After 1 hour incubation, pellet cells (10 minutes, 1000 RPM) and collect 200 ul per well of the supernatant, being careful not to disturb pellet, and transfer to a clean tube or 96-well plate. Place the supernatant plate on ice. During the 4-5 hour step (see next) perform the hexosiminidase assay. Resuspend cell pellet in 240 ul WEI-conditioned media containing 0.5% DMSO and corresponding concentration of compound. Incubate BMMC cells for 4-5 hours at 37° C. (5% CO2). After incubation, pellet cells (1000 RPM, 10 minutes) and collect 225 ul per well and place in −80° C. until ready to perform ELISAS. ELISAS are performed on appropriately diluted samples (determined empirically for each donor cell population so that the sample measurement falls within the standard curve) following the supplier's instructions.

[2] = system: bone marrow derived mast cells (BMMC); experiment: BMMC high cell density IgE activation: TNFalpha; assay type: cell-based, mouse; conditions: anti-IgE, second part of TABLE 1, read-out: BMMC anti-IgE TNF-alpha IC50
Protocol: as §1, §2

[3] = system: bone marrow derived mast cells (BMMC); experiment: BMMC high cell density IgE activation: hexosaminidase; assay type: cell-based, mouse; conditions: anti-IgE, second part of TABLE 1, read-out: BMMC anti-IgE hexos. IC50
Protocol: as §2
Hexosaminidase assay: In a solid black 96-well assay plate, add 50 uL hexosaminidase substrate (4-methylumbelliferyl-N-acetyl-(3-D-glucosaminide; 2 mM) to each well. Add 50 uL of BMMC cell supernatant (see above) to the hexoseaminidase substrate, place at 37° C. for 30 minutes and read the plate at 5, 10, 15, and 30 minutes on a spectrophotometer.

[4] = system: bone marrow derived mast cells (BMMC); experiment: BMMC high cell density IgE activation: histamine; assay type: cell-based, mouse; conditions: anti-IgE, second part of TABLE 1
Protocol: as §1, §2

[5] = system: bone marrow derived mast cells (BMMC); experiment: BMMC high cell density IgE activation: LTC4; assay type: cell-based, mouse; conditions: anti-IgE, second part of TABLE 1
Protocol: as §1, §2

[6] = system: cultured human mast cells (CHMC); experiment: CHMC low cell density ionomycin activation: tryptase assay; assay type: cell-based
[7] = system: IgE-induced degranulation of tissue mast cells; experiment: Mouse model of passive cutaneous anaphylaxis (PCA); assay type: in vivo; conditions: for % Inhibition (PCA): PO, 67% PEG/33% citrate buffer, pretreatment 15 min; for PCA response, positive controls (in words): mouse, in vivo
Protocol: This model provides a direct measure of IgE-induced degranulation of tissue mast cells. In this model, IgE primed animals are exposed to an allergen challenge, and the change in permeability of dermal vasculature that results from histamine release from mast cells is measured by change in the amount of dye leakage into surrounding tissue. Inhibition of mediator release by compounds that modulate mast cell degranulation is easily measured by extracting the dye from the tissue.
In the PCA assay mice are passively sensitized by intradermal injection with anti-dinitrophenol (DNP) IgE antibodies (Day −1). At predetermined times animals are treated with the test agent (Day 0). The modulatory effect of the agent on cutaneous mast cell degranulation is measured following intravenous injection of DNP conjugated to human serum albumin (HSA-DNP), together with Evans blue dye. The resulting cross-linking of the IgE receptor and subsequent mast cell degranulation-induced increase in vascular permeability is determined by measuring the amount of dye extravasation into the tissue. Dye is extracted from the tissue by formamide, and the absorbance of this extract is read at 620 nm.

[8] = system: cultured human mast cells (CHMC); experiment: CHMC low cell density IgE activation: tryptase assay; assay type: cell-based; conditions: anti-IgE
Summary of the method: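 Low-density CHMC assay: donor-adjusted 1000-1500 cells/well, MT buffer, 1 hr 37° C preincubation; anti-IgE stimulus 30 min 37° C versus MT-only controls; supernatant tryptase by substrate, 30 min RT.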

[9] = system: FcγRI-mediated degranulation; experiment: FcγRI receptor-mediated degranulation (activation with anti-human IgG Fab fragment); assay type: cell-based; conditions: cells not primed with IgE, activated with rabbit anti-human IgG Fab fragment

For `O=C(NC(CO)CO)c1cc2cc(Nc3ncc(F)c(Nc4ccc5c(c4)OCCO5)n3)ccc2o1` [R926785, N2-[2-(N-1,3-Dihydroxy-2-propylamino)carbonylbenzofuran-5-yl]-N4-(3,4-ethylenedioxyphenyl)-5-fluoro-2,4-pyrimidinediamine], the IC50 [1] was 0.513 µM, the IC50 [2] was 1.31 µM and the IC50 [3] was 0.989 µM. For the same molecule, the IC50 [4] was 0.561 µM, the IC50 [5] was 1.41 µM and the IC50 [6] was > 10 µM.
`Fc1cnc(Nc2ccc3c(c2)OCCO3)nc1Nc1ccc2c(c1)OCCO2` [R926109, N2,N4-Bis(3,4-ethylenedioxyphenyl)-5-fluoro-2,4-pyrimidinediamine] was tested, and the “% Inhibition (PCA)” value ([7]; 50 mg/kg) was 22%, the “% Inhibition (PCA)” value ([7]; 100 mg/kg) was 32% and the “% Inhibition (PCA)” value ([7]; 200 mg/kg) was 48%. For the same molecule, the “FcεR-mediated vascular leakage with increasing doses (in words)” value ([7]; solution (67% PEG/33% citrate buffer) or aqueous suspension (1.5% Avicel)) was “dose-dependent inhibition”.
In the case of `CNC(=O)CNc1cccc(Nc2ncc(F)c(Nc3ccc4c(c3)OCCO4)n2)c1` [R950191], the IC50 [1] is reported as < 0.22 µM, the IC50 [2] is reported as < 0.22 µM and the IC50 [8] is reported as 0.178 µM. For the same molecule, the IC50 [3] was < 0.22 µM, the IC50 [4] was > 2 µM and the IC50 [5] was 0.401 µM. For the same molecule, the IC50 [6] was > 10 µM.
Molecule `Cn1ncc2cc(Nc3ncc(F)c(Nc4cccc(O)c4)n3)ccc21` [R935194, 5-Fluoro-N4-(3-hydroxyphenyl)-N2-(1-methy-indazoline-5-yl)-2,4-pyrimidinediamine] has an IC50 [1] of 0.034 µM, an IC50 [4] of 0.054 µM and an IC50 [5] of 0.493 µM. The IC50 [6] was > 10 µM.
Molecule `Cc1cc(Nc2nc(Nc3cccc(OCC(=O)N4CCOCC4)c3)ncc2F)cc(Cl)c1O` [R940265, N4-(3-Chloro-4-hydroxy-5-methylphenyl)-5-fluoro-N2-[3-(N-morpholino)carbonylmethyleneoxyphenyl]-2,4-pyrimidinediamine] has an IC50 [1] of 0.486 µM, an IC50 [2] of 1.13 µM and an IC50 [8] of 0.239 µM. For the same molecule, the IC50 [3] was 0.981 µM, the IC50 [4] was 0.306 µM and the IC50 [5] was 1.21 µM. For the same molecule, the IC50 [6] was > 10 µM.
For `CNC(=O)COc1cccc(Nc2nc(Nc3cccc(O)c3)ncc2C(F)(F)F)c1` [R926741, N2-(3-Hydroxyphenyl)-5-trifluoromethyl-N4-[3-(N-methylamino)carbonylmethyleneoxyphenyl]-2,4-pyrimidinediamine], the IC50 [1] was 0.537 µM, the IC50 [2] was 0.772 µM and the IC50 [8] was 2.91 µM. For the same molecule, the IC50 [3] was 0.961 µM, the IC50 [4] was 1.02 µM and the IC50 [5] was > 10 µM. For the same molecule, the IC50 [6] was > 10 µM.
In the case of `CNC(=O)COc1cccc(Nc2ncc(F)c(Nc3ccc4c(c3)NC(=O)C(F)(F)O4)n2)c1` [R921303, N4-[(2,2-Difluoro-4H-benzo[1,4]oxazin-3-one)-6-yl]-5-fluoro-N2-[3-(methylaminocarbonylmethyleneoxy)phenyl]-2,4-pyrimidinediamine], the “FcγRI-mediated degranulation (in words)” value [9] is reported as “inhibit FcγRI-mediated degranulation”.
`CC(C)c1cccc(Nc2nc(Nc3cccc(OCC(=O)NCC(O)CO)c3)ncc2F)c1` (stereo not drawn) [R940290, N2-[3-(N-2,3-Dihydroxypropylamino)carbonylmethyleneoxyphenyl]-5-fluoro-N4-(3-isopropylphenyl)-2,4-pyrimidinediamine] was tested, and the IC50 [1] was 0.1 µM, the IC50 [4] was 0.545 µM and the IC50 [5] was 0.59 µM. The IC50 [6] was > 10 µM.
In the case of `Oc1cccc(Nc2nc(Nc3ccc4cn[nH]c4c3)ncc2F)c1` [R935191, 5-Fluoro-N4-(3-hydroxyphenyl)-N2-(indazolin-6-yl)-2,4-pyrimidinediamine], the IC50 [2] is reported as 0.071 µM, the IC50 [3] is reported as 0.068 µM and the IC50 [5] is reported as 0.213 µM. The IC50 [6] was > 10 µM.
In the case of `CN(C)CCOC(c1ccccc1)c1ccccc1` [diphenhydramine, reference compound], the “PCA response, positive controls (in words)” value [7] is reported as “inhibit the PCA response”.
In the case of `CCOC(=O)COc1ccc(Nc2ncc(F)c(Nc3ccc4c(c3)OCCO4)n2)cc1` [R925747, N2-(4-Ethoxycarbonylmethyleneoxyphenyl)-N4-(3,4-ethylenedioxyphenyl)-5-fluoro-2,4-pyrimidinediamine], the IC50 [8] is reported as 1.02 µM, the IC50 [3] is reported as 3.1 µM and the IC50 [6] is reported as 3.1 µM.
With `CN1CCC(=C2c3ccccc3C=Cc3ccccc32)CC1` [cyproheptadine, reference compound] the “inhibition of the PCA response” value ([7]; 8 mg/kg, i.p., 30 minutes pretreatment time, n=23 experiments) was 61% and the “PCA response, positive controls (in words)” value [7] was “inhibit the PCA response”.
For `Oc1cccc(Nc2ncc(F)c(Nc3ccc(OCc4nc(-c5ccccc5)no4)cc3)n2)c1` [R935138, 5-Fluoro-N2-(3-hydroxyphenyl)-N4-[4-(3-phenyl-1,2,4-oxadiazol-5-yl)methyleneoxyphenyl]-2,4-pyrimidinediamine], the IC50 [1] was < 0.22 µM, the IC50 [2] was 0.409 µM and the IC50 [8] was 0.096 µM. The IC50 [3] was < 0.22 µM, the IC50 [4] was < 0.22 µM and the IC50 [5] was 0.373 µM. It also gave an IC50 [6] of 0.552 µM.
In the case of `CNC(=O)COc1cccc(Nc2ncc(F)c(Nc3cccc(C(C)(C)C)c3)n2)c1` [R940276, N4-(3-tert-Butylphenyl)-N2-[3-(N-methylamino)carbonylmethyleneoxyphenyl]-5-fluoro-2,4-pyrimidinediamine], the IC50 [1] is reported as < 0.056 µM, the IC50 [2] is reported as 0.251 µM and the IC50 [8] is reported as 0.211 µM. For the same molecule, the IC50 [3] was 0.136 µM, the IC50 [4] was 0.073 µM and the IC50 [5] was 0.332 µM. The IC50 [6] was > 10 µM.
`CC(C)(C)c1cccc(Nc2nc(Nc3cccc(OCC(=O)NCC(O)CO)c3)ncc2F)c1` (stereo not drawn) [R940277, N4-(3-tert-Butylphenyl)-N2-[3-(N-2,3-dihydroxypropylamino)carbonylmethyleneoxyphenyl]-5-fluoro-2,4-pyrimidinediamine] gave an IC50 [1] of 0.181 µM, an IC50 [2] of 0.262 µM and an IC50 [3] of 0.279 µM. The IC50 [4] was 0.315 µM, the IC50 [5] was 0.625 µM and the IC50 [6] was > 10 µM.
`Cc1cc(Nc2ncc(F)c(Nc3ccc4c(c3)NC(=O)C(F)(F)O4)n2)cc(Cl)c1O` [R926971] was tested, and the “FcγRI-mediated degranulation (in words)” value [9] was “inhibit FcγRI-mediated degranulation”.
In the case of `Fc1cnc(Nc2ccc3[nH]ncc3c2)nc1Nc1ccc2c(c1)OCCO2` [R935198, N4-(3,4-Ethylenedioxyphenyl)-5-fluoro-N2-(indazoline-5-yl)-2,4-pyrimidinediamine], the IC50 [8] is reported as 0.126 µM and the IC50 [6] is reported as > 10 µM.
For `COC(=O)c1cc2cc(Nc3nc(Nc4ccc(OCc5nc(-c6ccccc6)no5)cc4)ncc3F)ccc2o1` [R935137, 5-Fluoro-N4-(2-methoxycarbonylbenzofura-5-yl)-N2-[4-(3-phenyl-1,2,4-oxadiazol-5-yl)methyleneoxyphenyl]-2,4-pyrimidinediamine], the IC50 [8] was 10 µM and the IC50 [6] was > 10 µM.
`CCOC(=O)COc1cccc(Nc2ncc(F)c(Nc3ccc4c(c3)NC(C)(C)CO4)n2)c1` [R909308] was tested, and the IC50 [8] was 0.671 µM and the IC50 [6] was > 10 µM.
In the case of `CNC(=O)COc1cccc(Nc2ncc(F)c(Nc3ccc(C(C)(C)C)cc3)n2)c1` [R926714, N4-(4-tert-Butylphenyl)-5-fluoro-N2-[3-(N-methylamino)carbonylmethyleneoxyphenyl]-2,4-pyrimidinediamine], the IC50 [8] is reported as 0.428 µM and the IC50 [6] is reported as > 10 µM.
With `CCOC(=O)C(C)(C)c1ccc(Nc2ncc(F)c(Nc3ccc(OC(C)C)cc3)n2)cc1` [R935150, N2-[4-[(1-Ethoxycarbonyl-1-methyl)ethyl]phenyl]-5-fluoro-N4-(4-isopropoxyphenyl)-2,4-pyrimidinediamine] the IC50 [8] was 1.93 µM and the IC50 [6] was 9.74 µM.
